Like-named read-outs stand apart in the source and are kept apart here.
What was measured:
[1] = test system: human U251-MG glioblastoma cells; assay: CyQuant cell count / proliferation assay; assay type: cell-based; conditions: 48 h
Method: 1 Compound 1 inhibits human U251 glioblastoma cell growth and labeled inositol phosphate levels. (A) Schematic of inositol phosphate metabolism. (B) Chemical structure of compound 1, indicating moiety A (blue highlight), the core (gray highlight), and moiety B (red highlight), and the IC50 value as determined by the kinase-GLO assay. (C) CyQuant cell count assay of 10,000 human U251-MG glioblastoma cells seeded per well, treated for 48 h with DMSO vehicle or 400 nM compound 1 (n = 8, ***p = 0.0046, unpaired t test). (D) HPLC analysis of ^3H-inositol phosphates from U251-MG cells treated with 400 nM compound 1 (red bars) or DMSO (blue bars) and metabolically labeled with ^3H-inositol for 48 h, expressed as the percentage of the inositol peak from the HPLC for InsP3, InsP4, InsP5, and InsP6, as indicated, *p < 0.05 by unpaired t test Bonferroni corrected for multiple comparisons. (E) Same data as in (D) replotted with a nonzero y-axis to facilitate visualizing differences between DMSO vs. compound treatment for each indicated inositol phosphate species, *p < 0.05 by unpaired t test Bonferroni corrected for multiple comparisons.
Error represents the standard error from 3 independent assays. (B) CyQuant cellular proliferation assay of 10,000 human U251-MG glioblastoma cells seeded per well, treated for 48 h with DMSO vehicle or 10 μM 14 (n = 8, ****p adj < 0.0001 by one-way ANOVA, Dunnett’s corrected; *p < 0.05 by unpaired t test). (C) HPLC analysis of ^3H-inositol phosphates from U251-MG cells treated with 10 μM compound 14 (red bars) or DMSO (blue bars) and metabolically labeled with ^3H-inositol for 48 h, expressed as a percentage of all the peaks detectable from the HPLC, *p < 0.05, **p < 0.01, ***p < 0.001 by unpaired t test compared to DMSO-treated control for all remaining panels, n = 3. (D) Same as (C) but expressed as a percentage of the inositol HPLC peak, n = 3. (E) Same as C but expressed as a percentage of all the inositol phosphate peaks combined from the HPLC, n = 3.

[2] = target: T1, purified recombinant human IP6K2 kinase domain (Homo sapiens, UniProt Q9UHH9); assay: IP6K2 IC50 determination, malachite green Pi release assay; assay type: biochemical
T1 sequence (Q9UHH9 1-426): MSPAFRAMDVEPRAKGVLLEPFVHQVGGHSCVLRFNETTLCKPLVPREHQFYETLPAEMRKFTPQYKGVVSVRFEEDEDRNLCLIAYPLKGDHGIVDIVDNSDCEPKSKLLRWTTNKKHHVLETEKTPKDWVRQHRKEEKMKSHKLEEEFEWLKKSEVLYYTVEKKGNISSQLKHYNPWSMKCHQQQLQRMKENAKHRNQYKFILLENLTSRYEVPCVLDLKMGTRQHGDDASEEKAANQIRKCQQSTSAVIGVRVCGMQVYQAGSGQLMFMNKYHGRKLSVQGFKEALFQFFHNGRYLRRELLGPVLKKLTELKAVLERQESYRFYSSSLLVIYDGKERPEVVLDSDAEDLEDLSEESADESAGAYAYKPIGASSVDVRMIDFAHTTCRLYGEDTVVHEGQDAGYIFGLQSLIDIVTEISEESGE
Method: IP6K2 IC50 values were determined using the purified recombinant human IP6K2 kinase domain expressed in a 384-well clear polystyrene plate (VWR 82051-264). This human IP6K2 kinase domain (100 nM) was used at 37 °C in 50 μL reaction mixtures containing 5.0 μM human Dipp1, 50 mM Tris (pH 6.9), 10 mM MgCl2, 0.02% Triton X-100, 25 μM InsP6, and 50 μM ATP for 30 min. Pi release was determined with a malachite green colorimetric assay. Reactions were quenched by the addition of 12.5 μL of phosphate detection reagent (MAK3071KT, Sigma-Aldrich). Pi release was quantified from the absorbance at 620 nm by using appropriate standards.

[3] = test system: AKT phosphorylation in U251-MG glioblastoma cells; assay: Western blots of phospho-AKT; assay type: cell-based, human; design: key to AKT P-Thr-308 signal intensity compared to DMSO / AKT P-Ser-473 signal intensity compared to DMSO: ns= not si gni fi cant by unpai r ed t -test
Method: About 3.5 × 10^6 U251 cells were seeded in 15 cm plates containing 30 mL of DMEM supplemented with 4.5 g/L D-glucose, L-glutamine, 10% FBS, 1% nonessential amino acids, and 1% penicillin–streptomycin (all from Thermo Fisher). […] Protein concentration was equalized using a Bradford assay, and samples were run on SDS-PAGE at 150 V for 1 h. Protein transfer was performed at 20 V for 1 h, membranes were blocked with 7 mL of EveryBlot blocking buffer (Bio-Rad) for 10 min. Primary antibodies used were AKT (#9272), Actin (#3700), and phospho-AKT (Ser473, #4060) at a 1:1000 dilution in EveryBlot blocking buffer, and phospho-AKT (Thr308, #13038) at a 1:400 dilution; all antibodies were from Cell Signaling Technology. After overnight incubation at 4 °C, membranes were washed and incubated with secondary antibodies (1:10,000 dilution for AKT, Actin, and P-AKT Ser473; 1:4000 for P-AKT Thr308) for 1 h. Detection was performed using Clarity Western ECL substrate (Bio-Rad) according to the manufacturer’s instructions and imaged using the Bio-Rad ChemiDoc system.

[4] = test system: purified recombinant human IPMK kinase domain; assay: IPMK IC50 determination, Kinase-Glo assay; assay type: biochemical
Source text: (§1) These assay conditions were optimized with respect to reaction time, IPMK enzyme concentration, and IP3 concentration to determine the IC50 values for these ATP-competitive compounds.

[5] = target: T2, purified recombinant human IPMK kinase domain (Homo sapiens, UniProt Q8NFU5); assay: IPMK IC50 determination, Kinase-Glo assay; assay type: biochemical
T2 sequence (Q8NFU5 with tags, fused parts or gaps): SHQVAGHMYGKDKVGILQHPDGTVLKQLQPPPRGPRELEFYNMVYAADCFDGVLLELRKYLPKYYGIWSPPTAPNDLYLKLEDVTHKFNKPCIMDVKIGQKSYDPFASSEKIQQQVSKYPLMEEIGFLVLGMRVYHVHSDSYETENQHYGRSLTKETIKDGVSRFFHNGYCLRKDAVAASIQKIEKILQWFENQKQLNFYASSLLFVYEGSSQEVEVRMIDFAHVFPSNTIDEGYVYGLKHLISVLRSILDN
Source text: as §1

IP6K2/IPMK ([2]; Table S1, ratio of IC50 values): 12
selectivity for IPMK over IP6K2 ([2]; from Table S1): 12 fold
IC50 ([2]; supplementary csv): 374 ± 159 nM
concentration of maximum IPMK inhibition [4]: 100 nM
IC50 ([5]; Kinase-Glo assay, 12.5 μM Ins(1,4,5)P3, 10 μM ATP, read-out: IC50 toward recombinant human IPMK): 32 ± 2.4 nM
IC50 ([5]; supplementary csv, read-out: IPMK IC50): 31.6 ± 2.4 nM
Structure (SMILES): c1cc(-c2onc3ccc(-c4nnn[nH]4)cc23)cc(C2CCN(C3CCC3)CC2)c1 [Compound 14, 3-(3-(1-Cyclobutylpiperidin-4-yl)phenyl)-5-(1H-tetrazol-5-yl)benzo[c]isoxazole]
cell growth ([1]; 1.0 μM): decreased cell growth
cell growth, CyQuant cellular proliferation assay ([1]; 10 μM, vs DMSO): inhibits cell growth
AKT P-Ser-473 signal intensity compared to DMSO ([3]; 10 μM): ns
AKT P-Thr-308 signal intensity compared to DMSO ([3]; 10 μM): ns
AKT P-Ser-473 signal intensity compared to DMSO ([3]; 30 μM): ns
AKT P-Thr-308 signal intensity compared to DMSO ([3]; 30 μM): ns
AKT P-Ser-473 signal intensity compared to DMSO ([3]; 50 μM): ns
AKT P-Thr-308 signal intensity compared to DMSO ([3]; 50 μM): ns
cytosolic AKT phosphorylation ([3]; after 48 h of treatment as printed in text): did not detect any changes

— article PMC12362615, “Design, Synthesis, and Cellular Characterization of a New Class of IPMK Kinase Inhibitors” (Journal of Medicinal Chemistry, 2025)
